16 molecules from ChEMBL document CHEMBL4024739, “Diversity-oriented sustainable synthesis of antimicrobial spiropyrrolidine/thiapyrrolizidine oxindole derivatives: New ligands for a metallo-β-lactamase from Klebsiella pneumonia” (2017) can be followed below.

In brackets after ≈: the same amount, converted by molar mass.

Common to all, as to type: functional
For experiment [1], the system named is Aspergillus fumigatus. The experiment in a line: Antifungal activity against Aspergillus fumigatus by spectrophotometric method.
The test system of experiment [2] is Klebsiella pneumoniae. The experiment in a line: Potency index, ratio of gentamicin MIC to compound MIC for Klebsiella pneumoniae ATCC 27736.
Experiment [3] relates to Klebsiella pneumoniae. The experiment in a line: Potency index, ratio of amphicillin MIC to compound MIC for Klebsiella pneumoniae ATCC 27736.
In experiment [4] the test system is Candida albicans. The experiment in a line: Antifungal activity against Candida albicans by spectrophotometric method.
Experiment [5] concerns Pseudomonas aeruginosa. The experiment in a line: Antibacterial activity against Pseudomonas aeruginosa ATCC BAA-427 by spectrophotometric method.
In experiment [6] the test system is Klebsiella pneumoniae. The experiment in a line: Antibacterial activity against Klebsiella pneumoniae ATCC 27736 by spectrophotometric method.
The subject of experiment [7] is Sporothrix schenckii. The experiment in a line: Antifungal activity against Sporothrix schenckii by spectrophotometric method.
The subject of experiment [8] is Cryptococcus neoformans. The experiment in a line: Antifungal activity against Cryptococcus neoformans by spectrophotometric method.
Experiment [9] has as its system Staphylococcus aureus. The experiment in a line: Antibacterial activity against Staphylococcus aureus ATCC 25923 by spectrophotometric method.
The test system of experiment [10] is Escherichia coli. The experiment in a line: Antibacterial activity against Escherichia coli ATCC 9637 by spectrophotometric method. Particulars: W.
The test system of experiment [11] is Candida parapsilosis. The experiment in a line: Antifungal activity against Candida parapsilosis ATCC 22019 by spectrophotometric method. Conditions: Lodderomyces parapsilosis.
In experiment [12] the test system is Trichophyton mentagrophytes. The experiment in a line: Antifungal activity against Trichophyton mentagrophytes by spectrophotometric method.

With `N#CC1(C#N)[C@@H](c2ccc(Cl)c(Cl)c2)C2CSCN2[C@@]12C(=O)Nc1ccccc12` (some centres not stated), the MIC in [1] was over 50 µg/mL; in experiment [4], over 50 µg/mL; in experiment [5], over 50 µg/mL; in experiment [6], 0.005 µg/mL (≈ 0.0113 µM); in [7], over 50 µg/mL; in experiment [8], over 50 µg/mL. For the same molecule, the MIC was over 50 µg/mL in [9], over 50 µg/mL in experiment [10], over 50 µg/mL in experiment [11] and 50 µg/mL (≈ 113 µM) in experiment [12]. The Ratio came to 156 in [2] and 78 in experiment [3].

Consider `CCOC(=O)[C@]1(C#N)[C@@H](c2ccc(OC)cc2)CN(C)[C@@]12C(=O)Nc1c(C)cc(C)cc12`, for which the minimal inhibitory concentration (MIC) in experiment [1] is over 50 µg/mL; in experiment [4], over 50 µg/mL; in experiment [5], over 50 µg/mL; in experiment [6], 25 µg/mL (≈ 57.7 µM); in experiment [7], over 50 µg/mL; in experiment [8], over 50 µg/mL. The minimal inhibitory concentration (MIC) was over 50 µg/mL in experiment [9], over 50 µg/mL in [10], over 50 µg/mL in experiment [11] and 50 µg/mL (≈ 115 µM) in [12].

For `CCOC(=O)[C@]1(C#N)[C@@H](c2c(F)cccc2Cl)CN(C)[C@@]12C(=O)Nc1c(C)cc(C)cc12`, the MIC in experiment [1] was 25 µg/mL (≈ 54.8 µM); in experiment [4], 50 µg/mL (≈ 110 µM); in experiment [5], over 50 µg/mL; in experiment [6], 3.12 µg/mL (≈ 6.84 µM); in [7] it was 25 µg/mL (≈ 54.8 µM); in experiment [8], 50 µg/mL (≈ 110 µM). Further, the MIC was 12.5 µg/mL (≈ 27.4 µM) in experiment [9], over 50 µg/mL in experiment [10], 50 µg/mL (≈ 110 µM) in experiment [11] and 12.5 µg/mL (≈ 27.4 µM) in [12].

In the case of `CCOC(=O)[C@]1(C#N)[C@@H](c2ccc(Cl)cc2)CN(C)[C@@]12C(=O)Nc1c(C)cc(C)cc12`, the minimum inhibitory concentration (MIC) is 50 µg/mL (≈ 114 µM) in experiment [1]; 50 µg/mL (≈ 114 µM) in experiment [4]; over 50 µg/mL in [5]; 1.56 µg/mL (≈ 3.56 µM) in experiment [6]; 50 µg/mL (≈ 114 µM) in [7]; 50 µg/mL (≈ 114 µM) in experiment [8]. Besides, the MIC in experiment [9] was 50 µg/mL (≈ 114 µM); in experiment [10] it was over 50 µg/mL; in [11], 50 µg/mL (≈ 114 µM); in experiment [12] it was 50 µg/mL (≈ 114 µM).

For `OC(Cn1cncn1)(Cn1cncn1)c1ccc(F)cc1F` [FLUCONAZOLE], the minimal inhibitory concentration (MIC) is 2 µg/mL (≈ 6.53 µM) in experiment [1]; 1 µg/mL (≈ 3.27 µM) in experiment [4]; 2 µg/mL (≈ 6.53 µM) in experiment [7]; 0.5 µg/mL (≈ 1.63 µM) in experiment [8]; 1 µg/mL (≈ 3.27 µM) in experiment [11]; 1 µg/mL (≈ 3.27 µM) in [12].

In the case of `CCOC(=O)[C@]1(C#N)[C@@H](c2ccc(Cl)c(Cl)c2)CN(C)[C@@]12C(=O)Nc1c(C)cc(C)cc12`, the minimal inhibitory concentration (MIC) in experiment [1] is over 50 µg/mL; in experiment [4], over 50 µg/mL; in experiment [5], over 50 µg/mL; in experiment [6], 6.25 µg/mL (≈ 13.2 µM); in experiment [7], over 50 µg/mL; in [8], over 50 µg/mL. Besides, the MIC in experiment [9] was over 50 µg/mL; in [10], over 50 µg/mL; in experiment [11], over 50 µg/mL; in [12] it was 50 µg/mL (≈ 106 µM).

As for `CCOC(=O)[C@]1(C#N)[C@@H](c2c(F)cccc2Cl)CN(C)[C@@]12C(=O)Nc1ccc([N+](=O)[O-])cc12`, the minimal inhibitory concentration (MIC) in experiment [1] was over 50 µg/mL; in [4] it was 50 µg/mL (≈ 106 µM); in experiment [5] it was over 50 µg/mL; in experiment [6], 50 µg/mL (≈ 106 µM); in [7] it was over 50 µg/mL; in experiment [8], 50 µg/mL (≈ 106 µM). Also, the MIC in experiment [9] is over 50 µg/mL; in [10] it was over 50 µg/mL; in [11], 50 µg/mL (≈ 106 µM); in experiment [12], over 50 µg/mL.

For `C[C@@H]1[C@H](O)[C@@H](C)/C=C/C=C/C=C/C=C/C=C/C=C/C=C/[C@H](O[C@@H]2O[C@H](C)[C@@H](O)[C@H](N)[C@@H]2O)C[C@@H]2O[C@](O)(C[C@@H](O)C[C@@H](O)[C@H](O)CC[C@@H](O)C[C@@H](O)CC(=O)O[C@H]1C)C[C@H](O)[C@H]2C(=O)O` [AMPHOTERICIN B], the minimum inhibitory concentration (MIC) amounted to 0.5 µg/mL (≈ 0.541 µM) in experiment [1]; 0.06 µg/mL (≈ 0.0649 µM) in experiment [4]; 0.12 µg/mL (≈ 0.13 µM) in [7]; 0.12 µg/mL (≈ 0.13 µM) in experiment [8]; 0.12 µg/mL (≈ 0.13 µM) in experiment [11]; 0.12 µg/mL (≈ 0.13 µM) in experiment [12].

On to `CCOC(=O)[C@]1(C#N)[C@@H](c2c(F)cccc2Cl)C2CSCN2[C@@]12C(=O)Nc1ccccc12` (some centres not stated), for which the minimum inhibitory concentration (MIC) in experiment [1] was over 50 µg/mL; in experiment [4] it was over 50 µg/mL; in [5], over 50 µg/mL; in experiment [6], 0.045 µg/mL (≈ 0.0954 µM); in experiment [7], over 50 µg/mL; in experiment [8], over 50 µg/mL. In addition, the MIC is over 50 µg/mL in experiment [9], over 50 µg/mL in experiment [10], over 50 µg/mL in experiment [11] and 50 µg/mL (≈ 106 µM) in [12].

`N#CC1(C#N)[C@@H](c2cccc([N+](=O)[O-])c2)C2CSCN2[C@@]12C(=O)Nc1ccccc12` (some centres not stated): the minimum inhibitory concentration (MIC) in experiment [1] was over 50 µg/mL; in experiment [4], over 50 µg/mL; in experiment [5] it was over 50 µg/mL; in experiment [6] it was 0.19 µg/mL (≈ 0.455 µM); in experiment [7], over 50 µg/mL; in experiment [8] it was over 50 µg/mL. The minimum inhibitory concentration (MIC) in experiment [9], in [10], in experiment [11] and in experiment [12] was over 50 µg/mL each time.

On to GENTAMICIN, for which the MIC in [5] turned out to be 0.78 µg/mL; in experiment [6], 0.78 µg/mL; in [9] it was 0.39 µg/mL; in [10], 0.78 µg/mL.

In the case of `CC1(C)S[C@@H]2[C@H](NC(=O)[C@H](N)c3ccccc3)C(=O)N2[C@H]1C(=O)O` [AMPICILLIN], the MIC in experiment [5] stood at 50 µg/mL (≈ 143 µM); in [6] it was 0.39 µg/mL (≈ 1.12 µM); in experiment [9], 0.19 µg/mL (≈ 0.544 µM); in experiment [10] it was 50 µg/mL (≈ 143 µM).

For `CCOC(=O)[C@]1(C#N)[C@@H](c2c(F)cccc2Cl)CN(C)[C@@]12C(=O)Nc1ccc(Cl)cc12`, the minimal inhibitory concentration (MIC) was 50 µg/mL (≈ 108 µM) in experiment [1]; 50 µg/mL (≈ 108 µM) in [4]; over 50 µg/mL in [5]; 25 µg/mL (≈ 54.1 µM) in experiment [6]; 50 µg/mL (≈ 108 µM) in experiment [7]; 50 µg/mL (≈ 108 µM) in experiment [8]. In addition, the MIC in experiment [9] was over 50 µg/mL; in experiment [10], over 50 µg/mL; in [11] it was 50 µg/mL (≈ 108 µM); in experiment [12], 50 µg/mL (≈ 108 µM).

On to `CCOC(=O)[C@]1(C#N)[C@@H](c2cccs2)C2CSCN2[C@@]12C(=O)Nc1ccccc12` (some centres not stated), for which the MIC is over 50 µg/mL in experiment [1]; over 50 µg/mL in experiment [4]; over 50 µg/mL in experiment [5]; 0.09 µg/mL (≈ 0.211 µM) in experiment [6]; over 50 µg/mL in [7]; over 50 µg/mL in experiment [8]. Also, the minimal inhibitory concentration (MIC) in experiment [9] was over 50 µg/mL; in experiment [10], over 50 µg/mL; in [11], over 50 µg/mL; in experiment [12], 50 µg/mL (≈ 117 µM).

Take `CCOC(=O)[C@]1(C#N)[C@@H](c2ccc(Cl)c(Cl)c2)CN(C)[C@@]12C(=O)Nc1ccc(Cl)cc12`: the MIC in [1] was over 50 µg/mL; in [4] it was over 50 µg/mL; in experiment [5] it was over 50 µg/mL; in experiment [6], 50 µg/mL (≈ 104 µM); in experiment [7], over 50 µg/mL; in experiment [8] it was over 50 µg/mL. In addition, the MIC in [9], in experiment [10], in [11] and in experiment [12] was over 50 µg/mL throughout.

For `CN1C[C@H](c2ccc(Cl)c(Cl)c2)C(C#N)(C#N)[C@]12C(=O)Nc1ccc(Cl)cc12`, the MIC was over 50 µg/mL in [1]; over 50 µg/mL in experiment [4]; over 50 µg/mL in experiment [5]; 6.25 µg/mL (≈ 14.5 µM) in experiment [6]; 50 µg/mL (≈ 116 µM) in experiment [7]; over 50 µg/mL in [8]. Also, the MIC in [9], in experiment [10], in experiment [11] and in experiment [12] was over 50 µg/mL throughout.

What is called MIC is the lowest concentration that inhibits growth of the organism.
